Results as given in patent US7871788B2, “Method of judging grade of malignancy of carcinoma cell using ATBF-1” (priority 2004, dated 2011).
Entries after “also recorded” stand apart in the source; their conditions may differ.

Key:
[1] = test system: P19 cells; assay: Movement of ATBF1 from cytoplasm to nucleus in P19 cells, PI3K family antagonists added; type: cell-based, mouse; conditions: P19 cells attached to culture dish, after retinoic acid
Experimental: The present inventors harvested cells in an undifferentiated proliferation state, to which stimulation had not been particularly applied, when at the starting time of culturing P19 carcinoma cells, and carried out an immunohistochemical staining method (ATBF1 staining using D1-120) by the following procedures. The cells were cultured in a chamber slide and fixed in 4% paraformaldehyde that had been adjusted with PBS, followed by washing. A primary antibody solution obtained by dissolving an anti-ATBF1 antibody in 0.05M Tris buffer solution (pH 7.6, containing 1% solution of bovine serum albumin and sodium azide) so that the concentration of the solution became 5 μg/ml was dropped on a slice to cause reaction at 37° C. for about 30 minutes (primary antibody reaction). […] After sufficiently washing, inclusion was carried, which was observed by using a fluorescence microscope (AX70; Olympus) or a confocal laser scanning microscope (LSM5; ZWISS). […]
From the fact about various factors relating to the cell cycle, which was investigated in the past, the movement of proteins between the nucleus and the cytoplasm is known to relate to phosphorylation of amino acid. In particular, it was determined that, for the movement to the nucleus, phosphorylation and dephosphorylation of nuclear localization signals were important. […]

[2] = test system: P19 cells; assay: Export of ATBF1 from nucleus to cytoplasm in P19 cells, CRM1 inhibitor added; type: cell-based, mouse
Experimental: The present inventors harvested cells in an undifferentiated proliferation state, to which stimulation had not been particularly applied, when at the starting time of culturing P19 carcinoma cells, and carried out an immunohistochemical staining method (ATBF1 staining using D1-120) by the following procedures. The cells were cultured in a chamber slide and fixed in 4% paraformaldehyde that had been adjusted with PBS, followed by washing. A primary antibody solution obtained by dissolving an anti-ATBF1 antibody in 0.05M Tris buffer solution (pH 7.6, containing 1% solution of bovine serum albumin and sodium azide) so that the concentration of the solution became 5 μg/ml was dropped on a slice to cause reaction at 37° C. for about 30 minutes (primary antibody reaction). After sufficiently washing, a secondary antibody Alexa Fluor 594-conjugated goat anti-rabbit IgG (as shown in the below-mentioned Examples, when double staining with other monoclonal antibody is carried out, Alexa Fluor 488-conjugated goat anti-mouse IgG is used simultaneously. Both are products by Molecular Probes.) was allowed to act on a specimen to cause a reaction at room temperature for about one hour (secondary antibody reaction). After sufficiently washing, inclusion was carried, which was observed by using a fluorescence microscope (AX70; Olympus) or a confocal laser scanning microscope (LSM5; ZWISS).
Recently, the fact that transport and export of various factors from the nucleus to the cytoplasm is adjusted with CRM1 (Exportin 1 or chromosome region maintenance 1) has been reported. ATBF1 is assumed to have a target sequence of CRM1, that is, nuclear exporting signals existing in three positions (portions starting from the 1267th, 2471th and 2504th positions in the amino acid sequence, respectively) (see FIG. 3b). […]

[3] = test system: RT4; conditions: cited from earlier work
[4] = test system: T24; conditions: T24, p53 nonsense mutant; cited from earlier work
[5] = test system: HT1376; conditions: HT1376, p53 missense mutant, p21 frame shift mutation; cited from earlier work
[6] = test system: NB1 cultured cell line derived from human neuroblastoma; assay: Western blotting of ATBF1 protein (D1-120) with or without retinoic acid treatment, NB1; type: cell-based; conditions: NB1, after retinoic acid treatment 24 hours
Experimental: In order to confirm the probability that the ATBF1 assumed in 10-2 is cut at some sites and it can function as each fraction of the cell, by using three kinds of cultured cells, that is, the cultured cell lines derived from human neuroblastoma, NB1 and GOTO; a mouse undifferentiated embryonic carcinoma cell line p19 and SDS-PAGE and western blotting using an anti-ATBF1 antibody (D1-120) were carried out. A control group and a nerve cell differentiation inducing group were examined, separately. As to the control group, cells of P19, NB1 and GOTO that have been cultured in a serum-containing culture solution were collected and examined. As to the nerve cell differentiation inducing group, retinoic acid treatment was carried out (P19: four days; NB1 and GOTO: 24 hours). However, a culture method of P19 cells is different from that of the other two cell lines. Firstly, in a state in which cells were allowed to float on a bacterial grade dish for four days, retinoic acid (concentration: […]) treatment was carried out, and then a serum-containing culture solution from which the retinoic acid had removed was prepared and transferred to a usual tissue culture dish. Then, culture was continued for three days. According to this method, P19 cells were differentiated and induced to neuron in which neurite was observed. […]

## Cn1c(=O)c2c(ncn2C)n(C)c1=O [caffeine]
[1]
  movement of ATBF1 into the nucleus: inhibited in almost all of the cultured cells; also recorded: more completely inhibited
  proliferation state of cells: completely maintained

## CCC(=C/[C@H](C)C/C=C/C(C)=C/[C@@H](C)C(=O)[C@@H](C)[C@H](O)[C@@H](C)C/C(C)=C/C(=O)O)/C=C/[C@@H]1OC(=O)C=C[C@@H]1C [Leptomycin B]
[2]; P19 cells after retinoic acid on coated dish
  number of cells undergoing apoptosis: clearly increased
[2]; P19 cells after retinoic acid on dish coated with fibronectin and poly-L-ornithine, versus no Leptomycin B
  intranuclear concentration of ATBF1: clearly increased
[2]; one more day of culture added, the following day
  cell death: almost all the cells died

## N.N.[Cl][Pt][Cl] [cisplatin]
[3]; RT4, the only one of the three cell lines
  introduction of p21: can introduce p21
[3]; RT4, wild-type p21 and p53
  induction of apoptosis: can be induced
[4]
  induction of apoptosis: cannot be induced
[5]
  induction of apoptosis: cannot be induced

## CC1=C(/C=C/C(C)=C/C=C/C(C)=C/C(=O)O)C(C)(C)CCC1 [retinoic acid]
[6]
  size of ATBF1 protein mainly observed: 210 kDa
